Reference: patent publication US8388990B2, “Acidified chlorite compositions containing nitrogenous stabilizers and systems and methods related thereto” (Ecolab USA Inc., priority 2002, dated 2013)
Read-outs that look alike come from different tables or passages of the source. One block for each compound: values may come before it.

What was measured:
[1] = for Percent of Initial NaClO2 Remaining 2 Hours after Mixing / Percent of Initial NaClO2 Remaining 5 Hours after Mixing: buffer
[2] = Colorant effect on chlorite consumption (Example 2); assay type: physicochemical; conditions: disinfecting composition A of Example 1 with essentially equimolar colorant: 0.41% Blue #1, 0.26% Blue #2, 0.30% Yellow #5, 0.25% Yellow #6, 0.28% Red #40
Protocol: To determine how increasing levels of colorant causes a more rapid consumption of chlorite, the disinfecting composition A of Example 1 was prepared with either 0% (control), 0.03%, 0.15%, 0.30% or 0.60% by weight FD&C Yellow #5.
This experiment was then repeated using essentially equimolar concentrations of the following FD&C colorants: 0.41% Blue #1, 0.26% Blue #2, 0.30% Yellow #5, 0.25% Yellow #6, 0.28% Red #40 and no colorant (control).

[3] = Chlorine dioxide generation by UV/Visible spectrophotometry at 360 nm (Example 6); assay type: physicochemical; conditions: pH 2.5, no colorant
[4] = Assay for measuring the Reduced Chlorite Demand Factor (Example 9); assay type: physicochemical; conditions: pH 2.5
[5] = buffer, pH 2.5
[6] = Effect of nitrogenous stabilizer on chlorite consumption in a nil colorant composition (Example 7); assay type: physicochemical
[7] = composition with FD&C Yellow #5, pH 2.5, versus control
[8] = level (Wt %): ethylenediamine 1.0, monoethanolamine 2.0, glycine 2.5
[9] = stabilizer at 1.33 M, five hours after mixing, versus control without stabilizer

Compound: Nc1ccccc1 [Aniline]
effect on rate of sodium chlorite consumption / chlorite longevity (in words) [1, 7]: promote greater chlorite longevity

Percent of Initial NaClO2 Remaining 5 Hours after Mixing [2]: <2%
Compound: CCN(Cc1cccc(S(=O)(=O)[O-])c1)c1ccc(C(=C2C=CC(=[N+](CC)Cc3cccc(S(=O)(=O)[O-])c3)C=C2)c2ccccc2S(=O)(=O)[O-])cc1.[Na+].[Na+] [FD&C Blue #1]

Compound: Aniline Sulfonic Acid
Percent of Initial NaClO2 After 2 Hours ([1]; pH 2.5): 90%
Percent of Initial NaClO2 After 5 hours ([1]; pH 2.5): 75%
effect on rate of sodium chlorite consumption / chlorite longevity (in words) ([1]; pH 2.5): promote greater chlorite longevity

Percent of Initial NaClO2 Remaining 5 Hours after Mixing [2]: 43%
Compound: O=C1/C(=C2\Nc3ccc(S(=O)(=O)[O-])cc3C2=O)Nc2ccc(S(=O)(=O)[O-])cc21.[Na+].[Na+] [FD&C Blue #2]

Percent of Initial NaClO2 Remaining 5 Hours after Mixing [2]: 18%
Compound: O=S(=O)([O-])c1ccc(N=Nc2c(O)ccc3cc(S(=O)(=O)[O-])ccc23)cc1.[Na+].[Na+] [FD&C Yellow #6]

Level of ClO2 after 1 hour [3, 8]: 105 ppm
Reduced Chlorite Demand Factor [4, 9]: 3.8
Percent of Initial NaClO2 Remaining 2 Hours after Mixing ([1]; pH 2.5): 78%
Percent of Initial NaClO2 Remaining 5 Hours after Mixing ([1]; pH 2.5): 42%
Percent of Initial Colorant Remaining 2 Hours after Mixing [5]: 61%
Compound: NCC(=O)O [Glycine]

Reduced Chlorite Demand Factor [4, 9]: 0.9
Compound: OCCNCCO [Diethanolamine]

Compound: NS(=O)(=O)O [Sulfamic Acid]
Percent of Initial NaClO2 After 2 Hours ([6]; stabilizer level 0.25 Wt %): 97%
Percent of Initial NaClO2 After 5 hours ([6]; stabilizer level 0.25 Wt %): 94%
Percent of Initial NaClO2 After 2 Hours ([6]; stabilizer level 0.50 Wt %): 97%
Percent of Initial NaClO2 After 5 hours ([6]; stabilizer level 0.50 Wt %): 94%
Level of ClO2 after 1 hour ([3]; stabilizer level 0.25 Wt %): 17 ppm
Level of ClO2 after 1 hour ([3]; stabilizer level 0.50 Wt %): 17 ppm
Reduced Chlorite Demand Factor [4]: 4.5
Percent of Initial NaClO2 Remaining 2 Hours after Mixing ([1]; pH 2.5): 98%
Percent of Initial NaClO2 Remaining 5 Hours after Mixing ([1]; pH 2.5): 95%
effect on rate of sodium chlorite consumption / chlorite longevity (in words) ([1]; pH 2.5): significantly impact the rate of sodium chlorite consumption
Percent of Initial Colorant Remaining 2 Hours after Mixing [5]: 97%

Reduced Chlorite Demand Factor ([4]; tested at 0.5% due to lower solubility, five hours after mixing): 5.6
effect on rate of sodium chlorite consumption / chlorite longevity (in words) [1, 7]: promote greater chlorite longevity
Compound: Nc1ccc(S(N)(=O)=O)cc1 [Sulfanilamide]

Level of ClO2 after 1 hour [3, 8]: 35 ppm
Reduced Chlorite Demand Factor [4, 9]: 4.0
Percent of Initial NaClO2 Remaining 2 Hours after Mixing ([1]; pH 2.5): 92%
Percent of Initial NaClO2 Remaining 5 Hours after Mixing ([1]; pH 2.5): 80%
Percent of Initial Colorant Remaining 2 Hours after Mixing [5]: 91%
Compound: NCCN [Ethylenediamine]

Percent of Initial NaClO2 Remaining 5 Hours after Mixing [2]: 60%
Compound: COc1cc(S(=O)(=O)[O-])c(C)cc1N=Nc1c(O)ccc2cc(S(=O)(=O)[O-])ccc12.[Na+].[Na+] [FD&C Red #40]

effect on rate of sodium chlorite consumption / chlorite longevity (in words) [1, 7]: solid chlorite longevity benefits
Compound: NCCS(=O)(=O)O [Taurine]

Level of ClO2 after 1 hour [3, 8]: 66 ppm
Reduced Chlorite Demand Factor [4, 9]: 4.1
Percent of Initial NaClO2 Remaining 2 Hours after Mixing ([1]; pH 2.5): 86%
Percent of Initial NaClO2 Remaining 5 Hours after Mixing ([1]; pH 2.5): 45%
Percent of Initial Colorant Remaining 2 Hours after Mixing [5]: 49%
Compound: NCCO [Monoethanolamine]

effect on rate of sodium chlorite consumption / chlorite longevity (in words) [1, 7]: solid chlorite longevity benefits
Compound: NCS(=O)(=O)O [Aminomethanesulfonic Acid]

Reduced Chlorite Demand Factor [4, 9]: 4.3
effect on rate of sodium chlorite consumption / chlorite longevity (in words) [1, 7]: provides longevity benefits
Compound: NC(N)=O [Urea]

Percent of Initial NaClO2 Remaining 5 Hours after Mixing [2]: 27%
Compound: O=C([O-])C1=NN(c2ccc(S(=O)(=O)[O-])cc2)C(=O)C1N=Nc1ccc(S(=O)(=O)[O-])cc1.[Na+].[Na+].[Na+] (stereo not shown) [FD&C Yellow #5]

effect on rate of sodium chlorite consumption / chlorite longevity (in words) [1, 7]: particularly effective
Compound: CNS(=O)(=O)O [Methylsulfamic Acid]
